Experimental data reported in patent publication US8476300B2, “Selective estrogen receptor modulator for the treatment of osteoarthritis” (Eli Lilly and Company, priority 2008, dated 2013).

Columns and labels:
[1] = tested on: Ishikawa cells; test: Ishikawa cell proliferation assay (alkaline phosphatase readout; agonist and antagonist modes); assay type: cell-based; conditions: for agonist activity: agonist mode, compound alone, versus the response to tamoxifen
Procedure: Ishikawa Cell Proliferation Assay:
This assay measures cell proliferation (using an alkaline phosphatase readout) in both an agonist mode in the presence of a test compound alone, and in an antagonist mode in which the ability of a test compound to block estradiol stimulation of growth is measured.
After an overnight incubation, Ishikawa cells are rinsed with Dulbecco's Phosphate Buffered Saline (“D-PBS”) without Ca^+2 and Mg^+2, and trypsinized by a 3 minute incubation with 0.25% Trypsin/EDTA, phenol red-free. Cells are re-suspended in assay medium and adjusted to 250,000 cells/mL. Approximately 25,000 cells in a 100 μl media are added to flat-bottom 96 wells microculture plates and incubated at 37° C. in a 5% CO2 humidified incubator for 24 hours. The next day, serial dilutions of compounds are prepared in assay medium (at 6 times the final concentration in the assay). The assay is run in dual mode, agonist and antagonist modes.
For the agonist mode, plates receive 25 μL/well of assay medium followed by 25 μL/well of a diluted test compound (at 6× the final concentrations). For the antagonist mode, plates receive 25 μL/well of 6 nM 17 β-estradiol (“E2”) followed by 25 μL/well of a diluted test compound (at 6× the final concentrations). After an additional 48-hour incubation at 37° C. in a 5% CO2 humidified incubator, media is aspirated from wells and 100 μL fresh assay medium is added to each microculture. Serial dilutions of compounds are prepared and added to the cells as described above. After an additional 72 hour incubation at 37° C. in a 5% CO2 humidified incubator, the assay is quenched by removing media and rinsing plates twice in D-PBS. The plates are dried for 5 minutes and frozen at −70° C. for at least 1 hour. The plates are then removed from the freezer and allowed to thaw at room temperature. After a 20-minute incubation, plates are read on a spectophotometer at 405 nm.
The data are fitted using a 4 parameter fit model to derive EC50 (for agonist mode) or IC50 (for antagonist mode) values. For the antagonist mode, a % efficacy for each compound is calculated versus E2 (1 nM) alone. For the agonist mode, a % efficacy for each compound is calculated versus the response to tamoxifen. […] The average agonist activity of the compound of Example 1 alone was 17.7%±11.3% (n=4) (arithmetric mean±standard deviation). The values for the compound of Example 1 may be compared to 4-hydroxytamoxifen which generally results in >100% agonist activity.

[2] = molecular target: T1, ERα receptor (Homo sapiens, UniProt P03372); test: Estrogen receptor competition binding assay (3H-estradiol displacement), ERα; conditions: geometric mean±standard deviation, from IC50 by Cheng-Prusoff, read-out: Ki-α
T1 sequence (P03372 1-595): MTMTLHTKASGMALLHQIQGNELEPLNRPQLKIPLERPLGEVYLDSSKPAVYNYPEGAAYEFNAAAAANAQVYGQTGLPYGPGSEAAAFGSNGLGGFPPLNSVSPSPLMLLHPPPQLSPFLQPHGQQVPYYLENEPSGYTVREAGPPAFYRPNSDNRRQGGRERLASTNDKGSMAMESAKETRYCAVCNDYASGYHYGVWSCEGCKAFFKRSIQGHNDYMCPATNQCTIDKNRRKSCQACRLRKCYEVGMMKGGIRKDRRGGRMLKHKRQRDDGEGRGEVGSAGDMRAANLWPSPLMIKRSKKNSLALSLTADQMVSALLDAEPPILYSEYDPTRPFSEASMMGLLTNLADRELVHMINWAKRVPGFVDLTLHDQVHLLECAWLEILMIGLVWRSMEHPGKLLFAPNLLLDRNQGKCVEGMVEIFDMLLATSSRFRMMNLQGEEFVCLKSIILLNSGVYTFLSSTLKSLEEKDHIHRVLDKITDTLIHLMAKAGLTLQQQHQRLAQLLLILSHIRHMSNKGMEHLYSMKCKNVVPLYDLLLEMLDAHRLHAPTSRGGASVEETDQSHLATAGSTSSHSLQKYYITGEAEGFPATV
Procedure: (§1) Estrogen Receptor Binding Assay:
(§2) Compounds are tested for binding affinity to both estrogen receptor types (ERα and ERβ) by a competition binding assay that measures the compound's ability to displace ^3H-estradiol from the receptors. IC50 and Ki values for both receptor types can be calculated.
(§3) A competition binding assay is run in a buffer containing 50 mM HEPES buffering reagent, pH 7.5, 1.5 mM ethylenediaminetetraacetic acid (“EDTA”), 150 mM NaCl, 10% glycerol, 1 mg/mL ovalbumin and 5 mM dithiothreitol (“DTT”), using 0.025 μCi per well ^3H-Estradiol (NEN#NET517 at 118 Ci/mmol, 1 mCi/mL), 10 ng/well ERα or ERβ receptor. A test compound is added at 10 different concentrations. Non-specific binding is determined in the presence of 1 μM of estradiol (17 β-estradiol). The binding reaction (140 μL) is incubated for 4 hours at room temperature, then 70 μl of cold DCC buffer is added to each reaction (DCC buffer contains per 50 mL of assay buffer, 750 mg of charcoal and 250 mg of dextran). Plates are mixed 8 minutes on an orbital shaker at 4° C. […] After an incubation of 2.5 hours, the plates are read in a counter. […] The Kd for ^3H-Estradiol is determined by saturation binding to ERα and ERβ receptors. The IC50 values for test compounds are converted to Ki using the Cheng-Prusoff equation, and the Kd determined by saturation binding assay.

[3] = tested on: immature rat uterus (estrogen-induced uterine weight); test: 3-Day immature rat uterus antagonist assay; assay type: in vivo; conditions: oral, 3 days, with EE2 0.1 mg/kg
Source text: 3-Day Immature Rat Uterus Antagonist Assay:
This model for uterine antagonism utilizes immature (3 week old) female rats that are highly sensitive to estrogenic stimulation of the uterus given that their circulating estrogen levels are prepubertal. The uteri from immature rats are fully responsive to exogenous estrogen, yet are quiescent in the absence of exogenous estrogen. Administration of exogenous estrogen to immature rats produces a reliable elevation of uterine weight, which can be used to study uterine antagonist effects. The rats are treated with both estradiol and 4 different concentrations of a test compound for 3 days and then uterine wet weights are measured. […]
Uterine weight/body weight ratios (UWR) are calculated for each animal. The percent inhibition of the estrogen-induced response is then calculated by the following formula: percent inhibition=100×(UWRestrogen−UWRtest compound)/(UWRestrogen−UWRcontrol)
ED50 values are derived from a semi-log regression analysis of the linear aspect of the dose response curve. Both the UWR data and the percent inhibition data are statistically analyzed by one way analysis of variance (ANOVA) with post-hoc testing by Fisher's PLSD when indicated by a p<0.05.

[4] = tested on: pCTX-II; test: P-CTXII biomarker; assay type: in vivo
Source text: pCTX-II is believed to be a useful biomarker reflecting efficacy relating to the treatment of OA. See for example, Garnero P et al Ann Rheum Dis 2003; 62:939-943; Mazieres B et al, Arthritis Rheum 2003; 48:5683

[5] = molecular target: ERβ receptor (Homo sapiens, UniProt Q92731); test: Estrogen receptor competition binding assay (3H-estradiol displacement), ERβ; conditions: geometric mean±standard deviation, from IC50 by Cheng-Prusoff, read-out: Ki-β
ERβ receptor, sequence (Q92731 whole entry): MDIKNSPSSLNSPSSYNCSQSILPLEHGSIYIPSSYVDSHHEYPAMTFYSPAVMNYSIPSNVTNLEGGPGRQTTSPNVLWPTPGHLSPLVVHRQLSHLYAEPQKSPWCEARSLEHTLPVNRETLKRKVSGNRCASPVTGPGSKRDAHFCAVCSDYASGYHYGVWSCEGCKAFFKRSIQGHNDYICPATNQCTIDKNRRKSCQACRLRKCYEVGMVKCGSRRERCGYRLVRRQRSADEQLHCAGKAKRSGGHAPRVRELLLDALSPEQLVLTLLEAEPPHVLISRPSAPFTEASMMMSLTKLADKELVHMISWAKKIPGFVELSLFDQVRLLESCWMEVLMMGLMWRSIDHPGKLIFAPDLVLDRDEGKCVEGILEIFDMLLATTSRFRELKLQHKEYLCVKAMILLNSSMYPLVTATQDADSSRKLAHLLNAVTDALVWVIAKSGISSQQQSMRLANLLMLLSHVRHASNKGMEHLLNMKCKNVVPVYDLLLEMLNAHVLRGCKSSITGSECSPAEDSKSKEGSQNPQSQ
Procedure: as §1, §2, §3

[6] = tested on: OVX rat uterus; test: 4-Day OVX rat uterine agonist assay; assay type: in vivo
Procedure: 4-Day OVX Rat Uterine Agonist Assay:
Seventy-five day old rats are ovariectomized and treatment is started 14 days later when circulating estradiol levels have reached minimal levels. After 4 days of treatment with 3 doses of a test compound, (6 rats per group) body weight, uterine wet weight and uterine eosinophil peroxidase (EPO) activity are measured. Cholesterol levels are also measured to compare relative ability to lower cholesterol with other SERMs. If there is any question of uterine stimulation, histological examination will determine epithelial cell height.
A significant (>10% of the increase induced by estradiol @0.1 mg/kg) and dose-responsive increase in uterine EPO activity is used as an early indicator of potential uterine agonist activity. […] None of the groups dosed with the compound of Example 1 evidenced an increase in EPO activity that was >10% of that induced by estradiol at 0.1 mg/Kg. Significant, dose-related increases in uterine endometrial thickness have also been used as an early sign of potential SERM uterine agonist activity.

[7] = tested on: OVX/MCT animals; test: OVX/Meniscal tear model of OA; assay type: in vivo, rat
Procedure: The rat meniscal tear (MCT) model is a well-described model of OA in which joint damage and pain are induced by surgical intervention (transection of the medial meniscus) in one knee joint. In the standard MCT model using male rats, joint pathology develops progressively and is measured via joint histology at 3 weeks post-surgery.

[8] = marker of cartilage type II collagen turnover; cited from earlier work
[9] = n=4, arithmetic mean±standard deviation

Row | Ki [2] [nM] | melting point [°C] | Ki [5] [nM] | increase in EPO activity relative to that induced by estradiol at 0.1 mg/Kg ([6]; all dose groups) | Compound | agonist activity [1, 9] | IC50 ([1]; Homo sapiens, Ishikawa, antagonist mode, n=4, geometric mean±standard deviation, read-out: relative IC50) [nM] | antagonist efficacy ([1]; antagonist mode, versus E2 (1 nM) alone, n=4, arithmetic mean±standard deviation) | ED50 (inhibition of estrogen-induced uterine weight/body weight ratio) [3] [mg/kg] | pCTX-II levels compared with 17α-ethynylestradiol treatment ([4]; all doses) | pCTX-II ([4]; in vivo) | uterine endometrial thickness, dose related increase vs OVX group ([6]; doses up to 10 mg/kg) | uterine EPO activity, dose related increase vs OVX group ([6]; doses up to 10 mg/kg, 4 days, Tukey Kramer p<0.05) | doses with statistically significant pain reduction vs OVX/MCT group ([7]; OVX animals, meniscal tear) [mg/kg] | joint pain ([7]; OVX animals, meniscal tear) | reduction in joint pain compared with 17α-ethynylestradiol ([7]; doses of 3 and 10 mg/kg) | urinary levels of CTX-II [8]
1 | – | – | – | – | 4-hydroxytamoxifen [reference compound] | > 100% | – | – | – | – | – | – | – | – | – | – | –
2 | 0.15 ± 0.22 | 248.82 | 0.2 ± 0.2 | up to 10% | Cc1ccc(-c2ccc3cc(O)ccc3c2Oc2ccc(OCCN3CCCCC3)cc2)s1.Cl [Example 1, 6-(5-methylthiophen-2-yl)-5-(4-(2-(piperidin-1-yl)ethoxy)phenoxy)naphthalen-2-ol hydrochloride] | 17.7%±11.3% | 3.75 ± 1.71 | 102%±8.4% | 0.053 | not statistically different from those resulting from treatment with 17α-ethynylestradiol | significantly and dose-dependently reduced pCTX-II | did not result in significant, dose related increases in uterine endometrial thickness | no significant dose related increases in EPO activity | ≥ 1.0 | reduced pain in a dose-dependent fashion | not statistically different from those induced by 17α-ethynylestradiol | –
3 | – | – | – | – | COc1ccc2c(c1)OC(C)(C)[C@@H](c1ccccc1)[C@@H]2c1ccc(OCCN2CCCC2)cc1 [levormeloxifene] | – | – | – | – | – | – | – | – | – | – | – | significantly decrease the urinary levels of CTX-II
